Literature values, collected in patent US20090197815A1, “COMBINATION OF SOMATOSTATIN-ANALOGS WITH DOPAMINE- OR GROWTH HORMONE RECEPTOR ANTAGONIST” (priority 2006, published 2009).
Read-outs that look alike come from different tables or passages of the source.

Key:
patients with acromegaly [1] = test system: patients with acromegaly
acromegalic patients [2] = conditions: cabergoline 1-3.5 mg/week added to depot SSA at maximum registered dose, 19 patients
patients with acromegaly [3] = conditions: daily subcutaneous monotherapy
acromegalic patients [4] = test system: acromegalic patients

C[C@@H](O)[C@@H]1NC(=O)[C@H](CCCCN)NC(=O)[C@@H](Cc2c[nH]c3ccccc23)NC(=O)[C@H](Cc2ccccc2)NC(=O)[C@@H](NC(=O)[C@H](N)Cc2ccccc2)CSSC[C@@H](C(=O)N[C@H](CO)[C@@H](C)O)NC1=O [Sandostatin®, octreotide acetate]
normalization of IGF-I (patients with acromegaly [1]): approximately 60 % of cases
patients with GH levels decreasing to <2.0 μg/L (patients with acromegaly [1]): 40 % of patients
patients with GH levels decreasing to <5.0 μg/L (patients with acromegaly [1]): 65 % of patients

C=CCN1C[C@H](C(=O)N(CCCN(C)C)C(=O)NCC)C[C@@H]2c3cccc4[nH]cc(c34)C[C@H]21 [cabergoline]
normalization of IGF1 (acromegalic patients [2]): 42 % patients
normalized both biochemical markers (GH<2.5 μg/L and IGF1 for age) (acromegalic patients [2]): 16 % of patients
reduction of GH<2.5 μg/L (acromegalic patients [2]): 21 % of patients

pegvisomant
change of GH concentrations during therapy (patients with acromegaly [3]): increased by nearly twofold
normalization of circulating IGF-I levels (patients with acromegaly [3]): 80 to 90 % of patients
tolerability (patients with acromegaly [3]): good tolerability
IGF-I concentration normal (acromegalic patients [4]; after 18 weeks, at least 50 mg pegvisomant per week, with monthly 30 mg Sandostatin LAR or 120 mg lanreotide Autogel): 81 % of patients
IGF-I concentration normal (acromegalic patients [4]; at week 42, weekly pegvisomant with monthly 30 mg Sandostatin LAR or 120 mg lanreotide Autogel): 95 % of patients
median weekly dose needed to return IGF-I concentration to normal (acromegalic patients [4]; combined with monthly long-acting SSA, range 40-80 mg): 60 mg
patients with mild non-progressive increases in liver transaminases (acromegalic patients [4]; from week 12, independent from pegvisomant dose, 10 patients, combined with long-acting SSA): 38%
